Results reported in patent US20100215775A1, “USE OF C10-C14-ALKANEDIOLS IN THE PREPARATION OF A COMPOSITION FOR THE PROPHYLAXIS AND/OR TREATMENT OF MALASSEZIA-INDUCED DANDRUFF FORMATION” (SYMRISE GmbH & Co. KG, priority 2006, published 2010).
≈ marks a conversion by molar mass, not a printed value.

Tested on: Malassezia furfur strain DSM6171
Assay: MIC value measurement by agar dilution method against Malassezia furfur
Format: cell-based, Malassezia furfur (synonym: Pityrosporum ovale)
Conditions: for factor by which activity is greater than that of 1,2-octanediol: ratio of MIC values versus 1,2-octanediol (MIC 225 ppm); for factor by which activity is greater than that of 1,2-octanediol / MIC: Malassezia furfur; for MIC: DSM6171, 72 h
Method: The antimicrobial action of the alkane-1,2-diols against Malassezia furfur was determined by means of the agar dilution method in accordance with DIN 58 940/ICS and DIN 58 944/ICS. Malassezia furfur strain DSM6171 was used as the test organism. Petri dishes having a diameter of 9 cm and containing 8.7 ml of freshly prepared Mueller-Hinton agar (Merck, art. 1.05437) kept liquid at 50° C. and containing 3% Tween 80 (Merck, art. 8.2217) were used. In order to prepare the test concentrations, ethanolic stock solutions of the alkane-1,2-diol samples were diluted with 96% ethanol until the following final test concentrations of the alkane-1,2-diols in the Mueller-Hinton agar were present: 25,000 ppm, 12,500 ppm, 6300 ppm, 3600 ppm, 1800 ppm, 1100 ppm, 900 ppm, 450 ppm, 225 ppm, 112 ppm, 56 ppm, 28 ppm, 14 ppm, 7 ppm, 4 ppm. 2 agar plates were cast per test concentration and nutrient medium. After solidification and drying (about 1 hour at 37° C.), the test plates were inoculated punctually with in each case 1 μl of the Malassezia furfur (DSM 6171-2.8×10^7 KBE/ml) test organism suspensions. The inoculated plates were subsequently incubated for 72 hours at 30° C. and then evaluated. The lowest active ingredient concentration at which, macroscopically, no growth is present was regarded as the MIC (minimum inhibitory concentration). The MIC values of the alkane-1,2-diols listed in Table 1 were determined in accordance with the general test conditions.

[1] = agar dilution, Mueller-Hinton agar with 3% Tween 80, 72 hours at 30° C., lowest concentration with no macroscopic growth

**Q.** For `CCCCCCCCC(O)CO` (stereo not shown) [1,2-Decanediol], which “factor by which activity is greater than that of 1,2-octanediol” value (“factor” for short) is on record?
**A.** about 8

**Q.** With `CCCCCCCCCCC(O)CO` (stereo not shown) [1,2-Dodecanediol] as the molecule, how does the “factor” value read?
**A.** about 16

**Q.** For `CCCCCCCCCCCCCCC(O)CO` (stereo not shown) [1,2-Hexadecanediol], which MIC [1] is on record?
**A.** 1100 µg/mL (≈ 4.26 mM)

**Q.** With `CCCCC(O)CO` (stereo not shown) [1,2-Hexanediol] as the molecule, how does the MIC [1] read?
**A.** 12500 µg/mL (≈ 106 mM)

**Q.** For `CCCCCCCCCCCCCCCCC(O)CO` (stereo not shown) [1,2-Octadecanediol], which MIC [1] is on record?
**A.** > 1100 µg/mL

**Q.** What about the MIC value [1] of the same molecule?
**A.** >1100 ppm

**Q.** How did the MIC [1] turn out when `CCCCCCC(O)CO` (stereo not shown) [1,2-Octanediol] was run?
**A.** 225 µg/mL (≈ 1.54 mM)

**Q.** Which MIC [1] does the source give for `CCCC(O)CO` (stereo not shown) [1,2-Pentanediol] here?
**A.** 25000 µg/mL (≈ 240 mM)

**Q.** How did the MIC [1] turn out when `CCCCCCCCCCCCC(O)CO` (stereo not shown) [1,2-Tetradecanediol] was run?
**A.** < 7 µg/mL

**Q.** What about the “factor” value of the same molecule?
**A.** at least 32
